From ChEMBL document CHEMBL4354827, “Discovery of Novel, Potent, Brain-Permeable, and Orally Efficacious Positive Allosteric Modulator of α7 Nicotinic Acetylcholine Receptor [4-(5-(4-Chlorophenyl)-4-methyl-2-propionylthiophen-3-yl)benzenesulfonamide]: Structure-Activity Relationship and Preclinical Characterization” (J Med Chem, 2020)
pEC50: −log10 of the molar value.

How the values were obtained:
[1] = Drug metabolism in dog liver microsomes assessed as metabolic rate at 1 uM preincubated for 5 mins followed by NADPH addition after 30 mins by LC-MS/MS analysis; assay type: ADME, Canis lupus familiaris, Microsome; conditions: 0.5 h
[2] = Metabolic stability in mouse liver microsomes assessed as compound remaining at 1 uM preincubated for 5 mins followed by NADPH addition and measured after 30 mins by LC-MS/MS analysis; assay type: ADME, Microsome; conditions: read-out: Stability
[3] = Protein binding in dog plasma assessed as unbound fraction at 5 uM incubated for 16 hrs under shaking condition by LC/MS/MS based rapid equilibrium dialysis method; assay type: ADME, cell-free, Canis lupus familiaris
[4] = AUClast in Beagle dog at 1 mg/kg, iv after 0.083 to 144 hrs by LC-MS/MS analysis; assay type: ADME, organism-based, Canis lupus familiaris; parameters: dose 1 mg/kg, time 0.083-144 hr, route intravenous; conditions: in vivo
[5] = AUClast in BALB/c mouse at 1 mg/kg, iv after 0.083 to 144 hrs by LC-MS/MS analysis; assay type: ADME, organism-based; parameters: dose 1 mg/kg, time upper 144 hr, time lower 0.083 hr, route intravenous; conditions: in vivo
[6] = Cmax in Wistar rat at 10 mg/kg, po after 0.25 to 144 hrs by LC-MS/MS analysis; assay type: ADME, organism-based; parameters: dose 10 mg/kg, route oral; conditions: in vivo
[7] = Cmax in Beagle dog at 10 mg/kg, po after 0.25 to 144 hrs by LC-MS/MS analysis; assay type: ADME, organism-based, Canis lupus familiaris; parameters: dose 10 mg/kg, route oral; conditions: in vivo
[8] = Cmax in BALB/c mouse at 10 mg/kg, po after 0.25 to 144 hrs by LC-MS/MS analysis; assay type: ADME, organism-based; parameters: dose 10 mg/kg, route oral; conditions: in vivo
[9] = Tmax in Wistar rat at 1 mg/kg, iv after 0.083 to 144 hrs by LC-MS/MS analysis; assay type: ADME, organism-based; conditions: in vivo
[10] = Half life in Wistar rat at 1 mg/kg, iv after 0.083 to 144 hrs by LC-MS/MS analysis; assay type: ADME, organism-based; conditions: in vivo
[11] = Clearance in BALB/c mouse at 1 mg/kg, iv after 0.083 to 144 hrs by LC-MS/MS analysis; assay type: ADME, organism-based; conditions: in vivo
[12] = Oral bioavailability in Beagle dog at 10 mg/kg after 0.25 to 144 hrs by LC-MS/MS analysis; assay type: ADME, organism-based, Canis lupus familiaris; conditions: in vivo
[13] = Drug concentration in Wistar rat plasma at 10 mg/kg, po after 8 hrs by LC-MS/MS analysis; assay type: ADME, organism-based
[14] = Brain to plasma permeability coefficient, Kp in Wistar rat at 10 mg/kg, po after 4 hrs by LC-MS/MS analysis; assay type: ADME, organism-based
[15] = target: Cytochrome P450 3A4 (Homo sapiens, UniProt P08684); test: Inhibition of CYP3A4 (unknown origin) up to 10 uM; assay type: ADME
Cytochrome P450 3A4, sequence (P08684 whole entry): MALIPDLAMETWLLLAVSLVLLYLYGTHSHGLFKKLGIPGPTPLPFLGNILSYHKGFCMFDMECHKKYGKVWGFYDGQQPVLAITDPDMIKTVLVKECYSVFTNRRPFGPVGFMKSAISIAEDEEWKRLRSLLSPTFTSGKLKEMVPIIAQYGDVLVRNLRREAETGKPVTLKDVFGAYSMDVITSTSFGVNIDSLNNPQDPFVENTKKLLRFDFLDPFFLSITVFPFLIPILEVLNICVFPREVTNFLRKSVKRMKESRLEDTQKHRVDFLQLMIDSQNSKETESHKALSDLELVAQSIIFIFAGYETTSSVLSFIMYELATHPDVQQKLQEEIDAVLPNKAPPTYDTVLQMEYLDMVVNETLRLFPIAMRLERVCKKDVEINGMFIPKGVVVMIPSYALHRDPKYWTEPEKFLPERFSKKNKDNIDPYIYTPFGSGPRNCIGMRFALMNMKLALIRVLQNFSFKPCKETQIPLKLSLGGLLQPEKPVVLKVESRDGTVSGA

[16] = target: Cytochrome P450 2D6 (Homo sapiens, UniProt P10635); test: Inhibition of CYP2D6 (unknown origin) up to 10 uM; assay type: ADME
Cytochrome P450 2D6, sequence (P10635 whole entry): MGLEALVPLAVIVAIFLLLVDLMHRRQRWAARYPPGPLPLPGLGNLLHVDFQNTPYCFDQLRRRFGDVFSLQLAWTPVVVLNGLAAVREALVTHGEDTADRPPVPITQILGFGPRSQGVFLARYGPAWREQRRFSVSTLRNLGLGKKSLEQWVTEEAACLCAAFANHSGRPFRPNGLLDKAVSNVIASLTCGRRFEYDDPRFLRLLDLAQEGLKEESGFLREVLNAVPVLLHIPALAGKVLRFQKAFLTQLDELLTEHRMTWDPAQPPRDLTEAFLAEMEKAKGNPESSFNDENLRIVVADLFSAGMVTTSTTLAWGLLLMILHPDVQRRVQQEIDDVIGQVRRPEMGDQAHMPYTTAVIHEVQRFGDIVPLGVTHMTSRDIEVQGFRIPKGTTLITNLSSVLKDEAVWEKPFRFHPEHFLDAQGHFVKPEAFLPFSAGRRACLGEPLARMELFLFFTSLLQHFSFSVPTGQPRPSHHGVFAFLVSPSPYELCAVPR

[17] = target: Cytochrome P450 2C9 (Homo sapiens, UniProt P11712); test: Inhibition of CYP2C9 (unknown origin) up to 10 uM; assay type: ADME
Cytochrome P450 2C9, sequence (P11712 whole entry): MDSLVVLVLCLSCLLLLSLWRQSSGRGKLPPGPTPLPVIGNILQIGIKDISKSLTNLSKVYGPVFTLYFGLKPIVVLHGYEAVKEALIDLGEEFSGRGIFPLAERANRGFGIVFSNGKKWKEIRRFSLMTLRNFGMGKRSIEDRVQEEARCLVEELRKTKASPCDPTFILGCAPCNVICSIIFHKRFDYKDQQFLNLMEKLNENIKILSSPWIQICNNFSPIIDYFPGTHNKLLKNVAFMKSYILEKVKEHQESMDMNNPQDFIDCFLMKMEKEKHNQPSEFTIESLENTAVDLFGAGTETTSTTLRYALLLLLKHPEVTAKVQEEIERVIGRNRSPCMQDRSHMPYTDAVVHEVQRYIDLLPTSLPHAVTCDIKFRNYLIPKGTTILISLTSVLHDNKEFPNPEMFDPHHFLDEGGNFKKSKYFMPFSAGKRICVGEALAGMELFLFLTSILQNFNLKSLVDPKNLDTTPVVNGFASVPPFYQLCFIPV

[18] = test system: Rattus norvegicus; test: Memory enhancement effect in time-delay induced Wistar rat model of amnesia assessed as exploration time for familiar object in retention trial at 3 mg/kg, po administered as single dose and measured on day 9 by novel object recognition test (reference value: 13.05 sec); assay type: functional
[19] = test system: Rattus norvegicus; test: Memory enhancement effect in time-delay induced Wistar rat model of amnesia assessed as increase in novel object discrimination index at 1 mg/kg, po administered as single dose and measured on day 9 by novel object recognition test (reference value: 0.03); assay type: functional
[20] = test system: Rattus norvegicus; test: Memory enhancement effect in scopolamine-induced Wistar rat model of amnesia assessed as exploration time for familiar object in retention trial at 0.15 mg/kg, po administered as single dose and measured on day 9 by novel object recognition test (reference value: 8.59 sec); assay type: functional
[21] = test system: Rattus norvegicus; test: Memory enhancement effect in scopolamine-induced Wistar rat model of amnesia assessed as exploration time for object2 in acquisition trial at 0.05 mg/kg, po administered as single dose and measured on day 8 by novel object recognition test (reference value: 15.63 sec); assay type: functional
[22] = test system: Rattus norvegicus; test: Memory enhancement effect in scopolamine-induced Wistar rat model of amnesia assessed as increase in exploration time for novel object in retention trial at 0.05 mg/kg, po administered as single dose and measured on day 9 by novel object recognition test (reference value: 12.09 sec); assay type: functional
[23] = test system: Rattus norvegicus; test: Memory enhancement effect in scopolamine-induced Wistar rat model of amnesia assessed as exploration time for object2 in acquisition trial at 0.5 mg/kg, po administered as single dose and measured on day 8 by novel object recognition test (reference value: 15.63 sec); assay type: functional
[24] = test system: Rattus norvegicus; test: Memory enhancement effect in scopolamine-induced Wistar rat model of amnesia assessed as increase in novel object discrimination index at 0.05 mg/kg, po administered as single dose and measured on day 9 by novel object recognition test (reference value: 0.21); assay type: functional
[25] = test system: Rattus norvegicus; test: Memory enhancement effect in time-delay induced Wistar rat model of amnesia assessed as exploration time for object2 in acquisition trial at 0.15 mg/kg, po for 7 days and measured on day 8 by novel object recognition test (reference value: 11.76 sec); assay type: functional
[26] = test system: Rattus norvegicus; test: Memory enhancement effect in time-delay induced Wistar rat model of amnesia assessed as exploration time for object1 in acquisition trial at 0.5 mg/kg, po for 7 days and measured on day 8 by novel object recognition test (reference value: 13.73 sec); assay type: functional
[27] = test system: Rattus norvegicus; test: Memory enhancement effect in time-delay induced Wistar rat model of amnesia assessed as exploration time for familiar object in retention trial at 0.5 mg/kg, po for 7 days and measured on day 8 by novel object recognition test (reference value: 10.20 sec); assay type: functional
[28] = test system: Rattus norvegicus; test: Memory enhancement effect in scopolamine-induced Wistar rat model of amnesia assessed as exploration time for object2 in acquisition trial at 0.15 mg/kg, po for 7 days and measured on day 8 by novel object recognition test (reference value: 15.63 sec); assay type: functional
[29] = test system: Rattus norvegicus; test: Memory enhancement effect in scopolamine-induced Wistar rat model of amnesia assessed as exploration time for object2 in acquisition trial at 0.50 mg/kg, po for 7 days and measured on day 8 by novel object recognition test (reference value: 15.63 sec); assay type: functional
[30] = test system: Rattus norvegicus; test: Improvement in social recognition time delay-induced Sprague-Dawley rat model of amnesia assessed as increase in reduction in social investigation time at 3 mg/kg, po administered as single dose prior to 1 hr training and measured after 30 mins (reference value: 0.39%); assay type: functional; parameters: scale not given: the % may be the effect or the level left
[31] = test system: Rattus norvegicus; test: Improvement in social recognition time delay-induced Sprague-Dawley rat model of amnesia assessed as reduction in recognition index 3 mg/kg, po administered as single dose prior to 1 hr training and measured after 30 mins (reference value: 1); assay type: functional
[32] = Drug level in Sprague-Dawley rat plasma at 0.5 mg/kg, po for 7 days; assay type: ADME, organism-based
[33] = Drug level in scopolamine-induced Sprague-Dawley rat brain at 0.5 mg/kg, po for 7 days; assay type: ADME, organism-based; conditions: read-out: Drug uptake
[34] = AUC(0 to infinity) in human at 7.5 to 100 mg; assay type: ADME
[35] = Half life in human at 7.5 to 50 mg administered for 14 days; assay type: ADME; conditions: in vivo
[36] = target: Neuronal acetylcholine receptor subunit alpha-7 (Homo sapiens, UniProt P36544); test: Positive allosteric modulatory activity against alpha7 nAChR in human IMR-32 cells assessed as potentiation of PNU-282987-induced Ca2+ […] at by FLIPR assay; assay type: cell-based
Neuronal acetylcholine receptor subunit alpha-7, sequence (P36544 whole entry): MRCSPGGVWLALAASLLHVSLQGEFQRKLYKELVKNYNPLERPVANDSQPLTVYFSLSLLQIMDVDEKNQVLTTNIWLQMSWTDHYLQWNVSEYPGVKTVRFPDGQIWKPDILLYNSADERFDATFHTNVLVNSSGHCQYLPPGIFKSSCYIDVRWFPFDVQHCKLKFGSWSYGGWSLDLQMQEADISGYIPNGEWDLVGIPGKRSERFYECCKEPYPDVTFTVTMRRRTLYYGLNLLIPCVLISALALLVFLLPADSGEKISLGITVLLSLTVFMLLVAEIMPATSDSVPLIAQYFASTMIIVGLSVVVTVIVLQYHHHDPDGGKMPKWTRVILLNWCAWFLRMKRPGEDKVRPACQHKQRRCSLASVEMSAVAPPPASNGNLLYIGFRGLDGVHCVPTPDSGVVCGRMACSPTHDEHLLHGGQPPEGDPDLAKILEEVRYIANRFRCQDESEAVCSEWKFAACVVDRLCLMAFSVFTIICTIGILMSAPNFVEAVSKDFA

## CCC(=O)c1sc(-c2ccc(Cl)cc2)c(C)c1-c1ccc(S(N)(=O)=O)cc1
[1]
  Drug metabolism: 0.01 nmol/min/mg
[2]
  remaining at 0.5 h, 1 µM: 96%
[3]
  fraction unbound at 16 h, 5 µM: 0.0031
[4]
  AUC(0-t): 47 µM·h
[5]
  AUC(0-t): 11 µM·h
[6]
  Cmax: 4.1 µM
[7]
  Cmax: 5 µM
[8]
  Cmax: 3.4 µM
[9]
  Tmax: 4.8 min
[10]
  half-life: 2700 min
[11]
  clearance: 3.6 mL/min/kg
[12]
  bioavailability: 60%
[13]
  concentration at 8 h: 830 nM
[14]
  Kp at 4 h: 10.7
[15]
  inhibition (INH): Not Active
[16]
  inhibition (INH): Not Active
[17]
  inhibition (INH): Not Active
[18]
  Time: 8.92 s
[19]
  Activity_index: 0.44
[20]
  Time: 4.86 s
[21]
  Time: 18.31 s
[22]
  Time: 14.65 s
[23]
  Time: 16.55 s
[24]
  Activity_index: 0.3
[25]
  Time: 13.58 s
[26]
  Time: 10.04 s
[27]
  Time: 4.9 s
[28]
  Time: 13.41 s
[29]
  Time: 16.55 s
[30]
  Activity: 52.87%
[31]
  Activity_index: 0.47
[32]
  concentration at 168 h: 1120 nM
[33]
  concentration at 168 h: 2130 nM
[34]
  AUC(0-inf): 261 to 24100 ng·h/mL
[35]
  half-life: 2 to 3.37 days
[36]
  pEC50: 6.49
